Experimental data from EPA's ToxValDB 9.5 (doi:10.2903/j.efsa.2017.4903).

What was measured:
Rattus norvegicus = conditions: for LOAEL: subchronic, duration: 90 days, clinical chemistry; for NOAEL: reproduction developmental
Hypoaspis aculeifer = conditions: chronic/long-term; duration: 14 days; reproduction
Folsomia candida = conditions: chronic/long-term; duration: 28 days; mortality
Pleurozium sp. = conditions: acute; duration: 72 hours; other
Pontoscolex corethrurus = conditions: chronic/long-term
Colinus virginianus = conditions: reproduction developmental
Danio rerio = conditions: chronic; reproduction
Coturnix japonica = conditions: acute; oral; mortality
Apis mellifera = conditions: acute, mortality

Structure (SMILES): Nc1ccc(O)c(Cl)c1 [3-Chloro-4-hydroxyaniline]
- LOAEL (Rattus norvegicus): 10 mg/kg-day

Structure (SMILES): Nc1cccc(Cl)c1 [3-Chloroaniline]
- NOEC (Hypoaspis aculeifer): 50 mg/kg
- NOEC (Folsomia candida): 9.5 mg/kg
- LOAEL (Rattus norvegicus): 10 mg/kg-day
- NOEC (Pleurozium sp.): 1 mg/L
- NOEC (Pontoscolex corethrurus; reproduction): 125 mg/kg

Structure (SMILES): CC(C)OC(=O)Nc1cccc(Cl)c1 [Chlorpropham]
- NOEC (Folsomia candida): 17.2 mg/kg
- NOAEL (Canidae; acute, oral, Beagle, mobility): 50 mg/kg-day
- NOAEL (Canidae; chronic, duration: 60 weeks, oral, diet, Beagle, organ weight): 5 mg/kg-day
- NOAEL (Canidae; short-term, duration: 28 days, Dog Other): 5 mg/kg-day
- NOAEL (Colinus virginianus): 94.7 mg/kg-day
- NOEC (Danio rerio): 0.32 mg/L
- LD50 (Rattus norvegicus; acute, oral, mortality): 4200 mg/kg-day
- NOAEL (Rattus norvegicus; body weight): 50 mg/kg-day
- NOAEL (Rattus norvegicus; immunology): 44.5 mg/kg-day
- LD50 (Coturnix japonica): > 2000 mg/kg-day
- NOEC (Pontoscolex corethrurus; growth): 30 mg/kg
- LD50 (Apis mellifera; dermal): 96.1 µg/piece
- LD50 (Apis mellifera; oral, unspecified): 505 µg/piece
